Read-outs that look alike come from different tables or passages of the source.
Columns and labels:
[1] = biological target: T1, PptA (AFPptA; AFPptA-GST) (Aspergillus fumigatus, UniProt B0XWE4); test: fluorescence polarization, transfer of BODIPY-TMR-labelled phosphopantetheine from CoA to AarA; type: biochemical
T1 construct: gene AFUB_024520

HS-PPTase (AASDHPPT) = biological target: T2, HS-PPTase (AASDHPPT) (Homo sapiens, UniProt Q9NRN7); test: fluorescence polarization, transfer of BODIPY-TMR-labelled phosphopantetheine from CoA to human ACP domain; type: biochemical; conditions: read-out: no inhibition at concentrations up to 200 μM
T2 construct: cDNA cloned into pET43.1, E. coli BL21(DE3), Ni-NTA purified
T2 sequence (Q9NRN7 1-309): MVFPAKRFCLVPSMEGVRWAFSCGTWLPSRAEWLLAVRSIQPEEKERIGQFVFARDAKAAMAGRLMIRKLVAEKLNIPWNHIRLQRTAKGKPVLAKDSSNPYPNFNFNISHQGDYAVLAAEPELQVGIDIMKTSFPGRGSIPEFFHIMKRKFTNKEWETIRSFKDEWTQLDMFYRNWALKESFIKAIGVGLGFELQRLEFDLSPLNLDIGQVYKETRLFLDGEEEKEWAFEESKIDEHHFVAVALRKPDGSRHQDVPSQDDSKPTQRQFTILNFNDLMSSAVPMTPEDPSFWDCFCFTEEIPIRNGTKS

T1 sequence (B0XWE4 entry or part of it): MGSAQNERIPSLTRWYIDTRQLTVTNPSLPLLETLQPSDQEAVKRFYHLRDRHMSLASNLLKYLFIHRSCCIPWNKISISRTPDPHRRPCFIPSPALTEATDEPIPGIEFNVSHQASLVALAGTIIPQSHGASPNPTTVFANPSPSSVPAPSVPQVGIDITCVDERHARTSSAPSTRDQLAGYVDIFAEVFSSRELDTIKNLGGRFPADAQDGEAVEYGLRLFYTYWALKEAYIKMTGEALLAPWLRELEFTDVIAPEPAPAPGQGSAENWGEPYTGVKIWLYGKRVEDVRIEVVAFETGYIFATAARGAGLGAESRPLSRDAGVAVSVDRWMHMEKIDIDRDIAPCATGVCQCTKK

| Structure (SMILES) | IC50 [1] [µM] | IC50 (HS-PPTase (AASDHPPT)) [µM] | IC50 ([1]; acceptor A. fumigatus AarA 750 ng, BODIPY-TMR-CoA, 62.5 mM bis-Tris pH 6.5, 12.5 mM Mg chloride, room temperature, 100 ng PptA, triplicate, doubling dilutions from 100 µM) [µM] |
| --- | --- | --- | --- |
| O=Nc1ccc2oc(=O)ccc2c1 [6-nitroso-1,2-benzopyrone] | 35.2 | > 200 |  |
| N=C1Sc2ccccc2C2=NCCCN12 [PD 404,182] | 3.9 |  |  |
| Clc1ccc(C(c2ccc(Cl)cc2)n2cc[n+](CC(OCc3ccc(Cl)cc3Cl)c3ccc(Cl)cc3Cl)c2)cc1 (stereo not shown) [calmidazolium chloride] |  |  | 19.2 |

Source: PMC5516258, “A Nonredundant Phosphopantetheinyl Transferase, PptA, Is a Novel Antifungal Target That Directs Secondary Metabolite, Siderophore, and Lysine Biosynthesis in Aspergillus fumigatus and Is Critical for Pathogenicity” (mBio, 2017)
